Patent publication US9655870B2, “Homeopathic drug composition and methods of use thereof” (priority 2002, dated 2017)
Marks after values point to notes of the source that are not given here.

Test system: patients with at least moderate fatigue
Assay: Decreased fatigue study (Example 1)
Assay type: in vivo, human

SMILES: O=C(CCNC(=O)OCc1ccccc1)NCCS(=O)(=O)O [Taurox SB]
- decrease of average fatigue score (eight patients, p=0.002): 43%
- fatigue (patient 101, both doses (6X, 8X)): less fatigue
- previously required daily naps (patient 101, upon initiation of 6X): became unnecessary
- Fatigue (lower numbers indicate less fatigue) (patient 101, week 0): 28 pts
- Fatigue (lower numbers indicate less fatigue) (patient 101, week 1): 27 pts
- Fatigue (lower numbers indicate less fatigue) (patient 101, week 2): 24 pts
- Fatigue (lower numbers indicate less fatigue) (patient 101, week 3): 24 pts
- Fatigue (lower numbers indicate less fatigue) (patient 101, week 4): 27 pts
- Fatigue (lower numbers indicate less fatigue) (patient 101, week 5): 26 pts
- Fatigue (lower numbers indicate less fatigue) (patient 101, week 6): 20 pts
- Fatigue (lower numbers indicate less fatigue) (patient 101, week 7): 16 pts
- Fatigue (lower numbers indicate less fatigue) (patient 101, week 8): 16 pts
- Fatigue (lower numbers indicate less fatigue) (patient 101, week 9): 20 pts
- Fatigue (lower numbers indicate less fatigue) (patient 101, week 10): 14 pts
- Fatigue (lower numbers indicate less fatigue) (patient 101, week 11): 14 pts
- Fatigue (lower numbers indicate less fatigue) (patient 101, week 12): 19 pts
- Fatigue (lower numbers indicate less fatigue) (patient 101, week 13): 19 pts
- Fatigue (lower numbers indicate less fatigue) (patient 101, week 14): 20 pts
- Fatigue (lower numbers indicate less fatigue) (patient 101, week 16): 21 pts
- Fatigue (lower numbers indicate less fatigue) (patient 101, week 17): 19 pts
- Fatigue (lower numbers indicate less fatigue) (patient 101, week 18): 19 pts
- Fatigue (lower numbers indicate less fatigue) (patient 101, week 19): 17 pts
- Fatigue (lower numbers indicate less fatigue) (patient 101, week 20): 15 pts
- Fatigue (lower numbers indicate less fatigue) (patient 101, week 21): 16 pts
- Fatigue (lower numbers indicate less fatigue) (patient 101, week 22): 16 pts
- Fatigue (lower numbers indicate less fatigue) (patient 102, week 0): 41 pts
- Fatigue (lower numbers indicate less fatigue) (patient 102, week 1): 48 pts
- Fatigue (lower numbers indicate less fatigue) (patient 102, week 2): 47 pts
- Fatigue (lower numbers indicate less fatigue) (patient 102, week 3): 48 pts
- Fatigue (lower numbers indicate less fatigue) (patient 102, week 4): 40 pts
- Fatigue (lower numbers indicate less fatigue) (patient 102, week 5): 35 pts
- Fatigue (lower numbers indicate less fatigue) (patient 102, week 6): 48 pts
- Fatigue (lower numbers indicate less fatigue) (patient 102, week 7): 48 pts
- Fatigue (lower numbers indicate less fatigue) (patient 102, week 8): 48 pts
- Fatigue (lower numbers indicate less fatigue) (patient 102, week 9): 46 pts
- Fatigue (lower numbers indicate less fatigue) (patient 102, week 10): 37 pts
- Fatigue (lower numbers indicate less fatigue) (patient 102, week 11): 35 pts
- Fatigue (lower numbers indicate less fatigue) (patient 102, week 12): 22 pts
- Fatigue (lower numbers indicate less fatigue) (patient 102, week 13): 22 pts
- Fatigue (lower numbers indicate less fatigue) (patient 102, week 14): 22 pts
- Fatigue (lower numbers indicate less fatigue) (patient 103, week 0): 37 pts
- Fatigue (lower numbers indicate less fatigue) (patient 103, week 1): 31 pts
- Fatigue (lower numbers indicate less fatigue) (patient 103, week 3): 24 pts
- Fatigue (lower numbers indicate less fatigue) (patient 103, week 5): 21.5 pts
- Fatigue (lower numbers indicate less fatigue) (patient 103, week 7): 9 pts
- Fatigue (lower numbers indicate less fatigue) (patient 201, week 0): 29 pts
- Fatigue (lower numbers indicate less fatigue) (patient 201, week 1): 39 pts
- Fatigue (lower numbers indicate less fatigue) (patient 201, week 2): 36 pts
- Fatigue (lower numbers indicate less fatigue) (patient 201, week 3): 21 pts
- Fatigue (lower numbers indicate less fatigue) (patient 201, week 4): 23 pts
- energy and sleep (patient 202): greater energy and better sleep
- Fatigue (lower numbers indicate less fatigue) (patient 202, week 0): 30 pts
- Fatigue (lower numbers indicate less fatigue) (patient 202, week 1): 39 pts
- Fatigue (lower numbers indicate less fatigue) (patient 202, week 2): 25 pts
- Fatigue (lower numbers indicate less fatigue) (patient 202, week 5): 17 pts
- Fatigue (lower numbers indicate less fatigue) (patient 202, week 6): 10* pts
- fatigue (patient 401, 8X dose): less fatigue
- Fatigue (lower numbers indicate less fatigue) (patient 401, week 0): 25 pts
- Fatigue (lower numbers indicate less fatigue) (patient 401, week 1): 20 pts
- Fatigue (lower numbers indicate less fatigue) (patient 401, week 2): 29 pts
- Fatigue (lower numbers indicate less fatigue) (patient 401, week 3): 21 pts
- Fatigue (lower numbers indicate less fatigue) (patient 401, week 4): 9 pts
- Fatigue (lower numbers indicate less fatigue) (patient 401, week 5): 8 pts
- fatigue (patient 507): less fatigue
- Fatigue (lower numbers indicate less fatigue) (patient 507, week 0): 33 pts
- Fatigue (lower numbers indicate less fatigue) (patient 507, week 1): 32.5 pts
- Fatigue (lower numbers indicate less fatigue) (patient 507, week 2): 31 pts
- fatigue (patient 703): less fatigue
- Fatigue (lower numbers indicate less fatigue) (patient 703, week 0): 48 pts
- Fatigue (lower numbers indicate less fatigue) (patient 703, week 1): 44 pts
- Fatigue (lower numbers indicate less fatigue) (patient 703, week 2): 44 pts
- Fatigue (lower numbers indicate less fatigue) (patient 703, week 3): 44 pts
- Fatigue (lower numbers indicate less fatigue) (patient 703, week 4): 44 pts
- Fatigue (lower numbers indicate less fatigue) (patient 703, week 5): 41 pts
- Fatigue (lower numbers indicate less fatigue) (patient 703, week 6): 37 pts
- Fatigue (lower numbers indicate less fatigue) (patient 703, week 7): 41 pts
- Fatigue (lower numbers indicate less fatigue) (patient 703, week 8): 41 pts
- Fatigue (lower numbers indicate less fatigue) (patient 703, week 9): 32.5 pts
- Fatigue (lower numbers indicate less fatigue) (patient 703, week 10): 39.5 pts
- Fatigue (lower numbers indicate less fatigue) (patient 703, week 11): 39.5 pts
- Fatigue (lower numbers indicate less fatigue) (patient 703, week 12): 39.5 pts
- Fatigue (lower numbers indicate less fatigue) (patient 703, week 13): 39.5 pts
- fatigue (patient 706 (second HCV patient)): decreased fatigue
- fatigue, all eight patients of Table 2 (patients entering with at least moderate fatigue (24 pts or higher)): reduced fatigue
